Values belong to the molecule of their own block, whether it stands above or below them.
Columns and labels:
maltase = assay: in vitro
Method: The stability of thiomaltose and maltose was investigated in the presence of maltase. Thiomaltose and maltose were incubated with 10 units of maltase, which is an enzyme that breaks maltose into two glucose molecules. The hydrolysis kinetics of thiomaltose and maltose was determined by quantifying the glucose released from thiomaltose or maltose hydrolysis.

Giardia = Giardia growth assay in 96 well plates (coulter counter); assay type: cell-based; conditions: 48 hours, 37° C., DMSO at or below 0.1%
Method: Methods for evaluating EC50 measurements in Giardia were established. Giardia cells were cultured in 96 well microtiter plates in anaerobic BD Bio-Bags (Becton Dickinson). Growth was assayed with a MoxiZ coulter counter (Orflo Technologies). The TMM and metroinadazole stock solutions contained DMSO to improve solubility. Giardia growth in 96 well plates with various volumes of TYDK media 10 and DMSO concentrations were evaluated over several days at 37° C. Cells grew more consistently in higher volumes of media and noted reduced growth in DMSO concentrations above 0.25%. […] Growth was evaluated after 48 hours.

P. aeruginosa = P. aeruginosa growth inhibition (absorption, OD600); assay type: cell-based; conditions: up to a 10 μM concentration; multidrug-resistant clinical isolate
Method: TM-R and free radezolid were incubated with P. aeruginosa for 24 hours. OD600 were used to determine the bacteria growth.
P. aeruginosa (5×10^8 CFUs) were incubated with various concentrations of either radezolid or TMR and the MIC was determined via absorption measurements. The P. aeruginosa strain used in this experiment was a clinical isolate, resistant to multiple antibiotics, obtained from a blood stream infection.

- half-life (maltase): ~30 min
- maltase hydrolysis (in words) (maltase; 3 hours, 10 units of maltase): hydrolyzed completely
Structure (SMILES): OC[C@H]1O[C@H](O[C@H]2[C@H](O)[C@@H](O)[C@H](O)O[C@@H]2CO)[C@H](O)[C@@H](O)[C@@H]1O [maltose]

Structure (SMILES): Cc1ncc([N+](=O)[O-])n1CCO [metronidazole]
- EC50 (Giardia): 1700 nM

Structure (SMILES): CC(=O)NC[C@H]1CN(c2ccc(-c3ccc(CNCc4cnn[nH]4)cc3)c(F)c2)C(=O)O1 [radezolid]
- efficacy against P. aeruginosa growth (in words) (P. aeruginosa): no efficacy

Structure (SMILES): OCC1OC(SC2C(CO)OC(O)C(O)C2O)C(O)C(O)C1O (stereo not drawn) [thiomaltose]
- hydrolyzed by maltase (maltase; 3 hours, 10 units of maltase): less than 1%
- maltase hydrolysis (in words) (maltase; 3 hours, 10 units of maltase): negligible hydrolysis

— patent US20170274087A1, “SACCHARIDE ANALOGS AND AGENTS FOR THE DIAGNOSIS AND THERAPY OF BACTERIAL INFECTIONS” (Emory University, priority 2014, published 2017)
